Source: patent US7671047B2, “Cationically substituted diphenylazetidinones, process for their preparation, medicaments comprising these compounds, and their use” (Sanofi-Aventis Deutschland GmbH, priority 2002, dated 2010)

The molecules below were run on uptake of 14C-cholesterol by the liver (cholesterol absorption) (assay: Cholesterol absorption test: uptake of 14C-cholesterol by the liver after peroral test meal). Details: dose at which uptake of 14C-cholesterol by the liver was halved (50%) vs control group; test substance given perorally immediately prior to test meal; mouse.
Type: in vivo, NMRI mice
Description: Effect of the Compounds of the Invention on Cholesterol Absorption and ^3H-taurocholic Acid Excretion Using Fecal Excrement of Mice, Rats or Hamsters
NMRI mice, Wistar rats, or Golden Syrian hamsters (in groups of n=4-6) were kept in metabolic cages, where they were fed with a standard diet (Altromin, Lage (Lippe)). The afternoon prior to the administration of the radioactive tracers (^14C-cholesterol), the feed was removed and the animals were adapted to grates.
Additionally, the animals were labeled s.c. with ^3H-TCA (taurocholic acid) (for example 1 μCi/mouse up to 5 μCi/rat) 24 hours prior to the peroral administration of the test meal (^14C-cholesterol in Intralipid® 20, Pharmacia-Upjohn).
Cholesterol absorption test: 0.25 ml/mouse Intralipid® 20 (Pharmacia-Upjohn) ((spiked with 0.25 μCi of ^14C-cholesterol in 0.1 mg of cholesterol) was administered perorally by gavage.
Test substances were prepared separately in 0.5% methylcellulose (Sigma)/5% Solutol (BASF, Ludwigshafen) or a suitable vehicle.
The administration volume of the test substance was 0.5 ml/mouse. The test substance was administered immediately prior to the test meal (Intralipid labeled with ^14C-cholesterol) (cholesterol absorption test).
The feces were collected over a period of 24 h: fecal elimination of ^14C-cholesterol and ^3H-taurocholic acid (TCA) was determined after 24 hours.
The livers were removed and homogenized, and aliquots were incinerated in an oximate (Model 307, Packard) to determine the amount of ^14C-cholesterol which had been taken up/absorbed.
The amount of ^14C-cholesterol taken up by the liver was based on the administered dose. The ED50 values were interpolated from a dose-effect curve as the dose at which the uptake of ^14C-cholesterol by the liver was halved (50%), based on a control group.

| SMILES | ED50 (liver) [mg/mouse] |
| --- | --- |
| N=C(N)c1ccc(C2C(CCC(O)c3ccc(F)cc3)C(=O)N2c2ccc(F)cc2)cc1 (centres unmarked) [II, 4-{1-(4-Fluorophenyl)-3-[3-(4-fluorophenyl)-3-hydroxypropyl]-4-oxoazetidin-2-yl}benzamidine] | 0.1 |
| O=C(CCCCCCCCCCC[N+]12CCN(CC1)CC2)NCc1ccc(C2C(CCC(O)c3ccc(F)cc3)C(=O)N2c2ccc(F)cc2)cc1.O=C([O-])C(F)(F)F (centres unmarked) [IX, 1-[11-(4-{1-(4-Fluorophenyl)-3-[3-(4-fluorophenyl)-3-hydroxypropyl]-4-oxoazetidin-2-yl}benzylcarbamoyl)undecyl]-4-aza-1-azoniabicyclo[2.2.2]octane trifluoroacetate] | 0.1 |
| O=C(CCCCC[N+]12CCN(CC1)CC2)NCc1ccc(C2C(CCC(O)c3ccc(F)cc3)C(=O)N2c2ccc(F)cc2)cc1.O=C([O-])C(F)(F)F (centres unmarked) [VII] | 0.1 |
| O=C(CCCCCCCCCCC[N+]12CCN(CC1)CC2)NCc1ccc(N2C(=O)C(CCC(O)c3ccccc3)C2c2ccccc2)cc1.O=C([O-])C(F)(F)F (centres unmarked) [X, 1-[11-{4-[3-(3-Hydroxy-3-phenylpropyl)-2-oxo-4-phenylazetidin-1-yl]benzylcarbamoyl}undecyl)-4-aza-1-azoniabicyclo[2.2.2]octane trifluoroacetate] | <1.0 |
| COc1ccc(C2C(CCC(O)c3ccc(F)cc3)C(=O)N2c2ccc(CNC(=O)CCCCCCCCCCC[N+]34CCN(CC3)CC4)cc2)cc1.O=C([O-])C(F)(F)F (centres unmarked) [XI, 1-[11-{4-[3-[3-(4-Fluorophenyl)-3-hydroxypropyl]-2-(4-methoxyphenyl)-4-oxoazetidin-1-yl]benzylcarbamoyl}undecyl)-4-aza-1-azoniabicyclo[2.2.2]octane trifluoroacetate] | 0.3 |
